Key:
[1] = system: HCT-116 MTAP-deleted tumors; assay: Anti-tumor efficacy in HCT-116 MTAP-deleted mouse xenograft; assay type: in vivo; details: Day fourteen
Description: (§1) The effect of Compound A and Compound B as single-agent anti-tumor agents and in combination was assessed in the HCT-116 human colon tumor cell line, MTAP isogenic pair (MTAP proficient (WT) or MTAP-deleted). Cells were expanded in DMEM/F12 GlutaMAX (Fisher Scientific, Catalog Number 10-565-018) with 10% fetal bovine serum. These cells were free of mycoplasma and authenticated as HCT-116 by STR profiling. Two and a half million cells in log growth phase were resuspended in Hanks Balanced Salt Solution containing 50% Matrigel and implanted subcutaneously into the flank of each recipient female CB17/lcr-Prkd^scid/lcrlcoCrl mouse. Mice were housed in microisolator cages with corn cob bedding with additional enrichment consisting of sterile nesting material (Innovive) and Bio-huts (Bio-Serv). Water (Innovive) and diet (Teklad Global 19% Protein Extruded Diet 2919, Irradiated) were provided ad libitum. The environment was maintained on a 12-hour light cycle at approximately 68-72° F. and 40-60% relative humidity.
(§2) Tumor Volume (TV) was calculated using the following formula: TV (mm^3)=(width×width×length)/2. No dose holidays were provided for during the study and all mice were euthanized following the final dose on Day fourteen. Tumor growth inhibition (TGI) was calculated by [(TV controlfinal−TV treatedfinal)/(TV controlfinal−TV controlinitial)×100]. TV was analyzed for statistical significance utilizing GraphPad Prism version 9.1.0. Repeated Measures 2-Way ANOVA with Tukey's Multiple Comparisons was utilized, and P-values were presented from the final tumor measurement and were considered statistically significant if less than 0.05.
(§3) Mean tumor volume at dosing start was approximately 128-145 mm^3, with seven mice randomized to each treatment group. The study design was identical for both models, with the study consisting of six treatment groups. Mice were dosed orally, once per day, with Vehicle, Compound A at 5 mg/kg, Compound B at 9.375 or 18.75 mg/kg, or Compound A at 5 mg/kg and Compound B at 9.375 mg/kg, or Compound A at 5 mg/kg and Compound B at 18.75 mg/kg. The doses were staggered with Compound A given first and Compound B administered 2 hours later. Likewise, the Vehicle B (for Compound B, Saline) was administered to animals 2 hours later than the Vehicle A (for Compound A, 0.5% 400 cps methylcellulose with 0.5% Tween-80 in sterile water).

HCT-116 MTAP WT tumors = assay: Anti-tumor efficacy in HCT-116 MTAP WT mouse xenograft; assay type: in vivo; details: Day fourteen
Description: as §1, §2, §3

BxPC-3 tumors = assay: Anti-tumor efficacy in pancreatic xenograft BxPC-3; assay type: in vivo, mouse; details: Day 28
Description: The BxPC-3 tumor cell line was maintained in vitro as a monolayer culture in RPMI 1640 medium supplemented with 10% fetal bovine serum at 37° C. in an atmosphere of 5% CO2 in air. The tumor cells were routinely sub-cultured, not to exceed 4-5 passages. The cells growing in an exponential growth phase were harvested and counted for tumor inoculation. Each mouse was inoculated subcutaneously on the right flank with 5 million BxPC-3 tumor cells in 0.1 mL RPMI 1640 and Matrigel mixture (1:1 ratio) for tumor development.
Tumor Volume (TV) was calculated using the following formula: TV (mm^3)=(width×width×length)/2. No dose holidays were provided for during the study and all mice were euthanized following the final dose on Day 28. Tumor growth inhibition (TGI) was calculated by [(TV controlfinal−TV treatedfinal)/(TV controlfinal−TV controlinitial)×100]. TV was analyzed for statistical significance using GraphPad Prism version 9.1.0. Repeated Measures 2-Way ANOVA with Tukey's Multiple Comparisons was utilized, and P-values were presented from the final tumor measurement and were considered statistically significant if less than 0.05. The treatment started when the mean tumor volume reached about 197 mm^3. Mice were then randomly assigned to respective groups so that the mean starting tumor volume was the same among groups. Mice were dosed orally, once per day, with Vehicle, Compound A at 10 mg/kg, Compound B at 9.375 or 18.75 mg/kg, or Compound A at 10 mg/kg and Compound B at 9.375 mg/kg, or Compound A at 10 mg/kg and Compound B at 18.75 mg/kg. The Doses were staggered with Compound A given first and Compound B administrated 2 hours later. Likewise, the Vehicle B (for Compound B, Saline) was administrated to animals 2 hours later than the Vehicle A (for Compound A, 0.5% 400 cps methylcellulose with 0.5% Tween-80 in sterile water).

[2] = system: KP4 pancreatic cancer cell line; assay: 5-day proliferation screening, combination synergy (HSA, Loewe, Bliss); assay type: cell-based; details: HSA and Loewe models, single agent activity of Compound B
Description: (§4) A 4-day proliferation screening was done in colorectal cancer lines HCT116 and HCT116 MTAP−/− (CRISPR Knock-out), and a 5-day proliferation screening was performed in pancreatic cancer cell lines BxPC3, KP4 and lung cancer line, NCI-H838. The nuclei were fluorescent tagged for all the cell lines. Combinations included a 5-fold titration from 10 uM for MAT2Ai (Compound A) and 5-fold titration from 20 uM for Type1 PRMTi (Compound B). Cells were plated at a seeding density 1000 cells/well in a 96-well format 24h before treatment and treated the following day with an 8×8 double matrix titration (five-fold dilution series) of Compound A (MAT2Ai) and Compound B (Type I PRMTi). Triplicates were run for each data point. Nuclear count was measured at the end point using the IncuCyte S3 Live-Cell Analysis System. Average fluorescence of cells treated with DMSO was set to 100% and the % viable cells were calculated accordingly. Dose response curves for single drug activity and drug-drug synergy for combinations were generated using Combenefit software. Synergy was evaluated using HSA, Loewe, and Bliss models.

[3] = system: NCI-H838 lung cancer line; assay: as above; assay type: cell-based; details: HSA and Loewe models, single agent activity of Compound B
Description: as §4

[4] = Compound A 5 mg/kg orally once per day
[5] = Compound A 10 mg/kg orally once per day
[6] = Compound B 9.375 mg/kg orally once per day
[7] = Compound B 18.75 mg/kg orally once per day

For Nc1nc(=O)n(-c2ccccc2Cl)c2nc(C(F)(F)F)ccc12 [Compound A], the “Final TV (mean)” value [1, 4] was 232 mm^3, the “TGI (tumor growth inhibition)” value [1, 4] was 68% and the “Final TV (mean)” value (HCT-116 MTAP WT tumors; [4]) was 539 mm^3. The “TGI (tumor growth inhibition)” value (HCT-116 MTAP WT tumors; [4]) was 56%, the “Final TV (mean)” value (BxPC-3 tumors; [5]) was 686 mm^3 and the “TGI (tumor growth inhibition)” value (BxPC-3 tumors; [5]) was 37%.

In the case of CCOCC1(COCC)CCC(c2n[nH]cc2CN(C)CCNC)CC1 [Compound B], the “concentration of Compound B above which modest cytotoxicity observed” value [2] was “above 0.8 uM”, the “concentration of Compound B above which modest cytotoxicity observed” value [3] was “above 0.16 uM” and the “Final TV (mean)” value [1, 6] was 441 mm^3. The “TGI (tumor growth inhibition)” value [1, 6] was 4%, the “Final TV (mean)” value [1, 7] was 357 mm^3 and the “TGI (tumor growth inhibition)” value [1, 7] was 30%. The “Final TV (mean)” value (HCT-116 MTAP WT tumors; [6]) was 928 mm^3, the “TGI (tumor growth inhibition)” value (HCT-116 MTAP WT tumors; [6]) was 13% and the “Final TV (mean)” value (HCT-116 MTAP WT tumors; [7]) was 907 mm^3. The “TGI (tumor growth inhibition)” value (HCT-116 MTAP WT tumors; [7]) was 16%, the “Final TV (mean)” value (BxPC-3 tumors; [6]) was 638 mm^3 and the “TGI (tumor growth inhibition)” value (BxPC-3 tumors; [6]) was 44%. The “Final TV (mean)” value (BxPC-3 tumors; [7]) was 415 mm^3 and the “TGI (tumor growth inhibition)” value (BxPC-3 tumors; [7]) was 72%.

— patent publication US20240269143A1, “COMBINATION THERAPY COMPRISING A MAT2A INHIBITOR AND TYPE I PRMT INHIBITOR” (IDEAYA BIOSCIENCES, INC., priority 2021, published 2024)
